US5883074A, “Potentiators of antibacterial agents” (priority 1995, dated 1999)
Read-outs that look alike come from different tables or passages of the source.

Legend:
E. faecalis VanA strain [1] = test: Vancomycin potentiation screens VPS-20 and VPS-D-ala; format: cell-based, Enterococcus faecalis; details: 10 ug/ml test compound; for intrinsic activity against the control cells: no vancomycin; for vancomycin potentiation screen result: VPS-20 and/or VPS-D-ala
Procedure: (§1) In the VPS-20 protocol, vancomycin is used at 20 ug/ml, test compounds are used at 10 ug/ml (this is not critical, a range could be used as well). The growth medium is Brain Heart Infusion broth however, any of a variety of media which will support growth of the specific bacterial strain can be used. The VPS-D-Ala screen uses 8 ug/ml of vancomycin and 50 mM D-alanine. This amino acid is added to feed the bacteria excess alanine, which allows the bacteria to incorporate the alanine in some cases instead of incorporating the (resistance causing) D-lactate in the pentapeptide termini of the cell wall precursor. The presence of this D-alanine supplement thus makes the assay less stringent.
(§2) Inoculate E. faecalis VanA strain in BHI broth (pick a few colonies into 3 ml BHI with 2.56 ug/ml vancomycin and grow O/N at 35° C. in a shaker rotating at 225 rpm.
(§3) Dilute the O/N culture 1:50 in BHI with 2.56 ug/ml vancomycin (0.5 ml±24.5 ml BHI) in a 125-ml flask, put back in the 35° C. shaker until the cells grow to early log phase (OD600 about 0.2, takes approximately 2 hrs). Make a 1:800 dilution of the log phase culture with BHI broth. 50 ul of these diluted cells will be used as the inoculum in the assay as described below. Add the inoculum after the other reagents.
(§4) Meanwhile, test the inoculum concentration and purity: Make 3 serial 10-fold dilutions of the inoculum in 0.2 ml BHI broth. Plate 100 ul on TSA agar plates (trypticase soy agar), incubate at 35° C. O/N, count the colonies to estimate the CFU/ml in the inoculum (it should be 10^4 -10^5 CFU/ml).
(§5) Make vancomycin stock at 50 mg/ml in ddH2 O. Filter sterilize with 0.2 um filter, and keep in the freezer. On the day of the assay, dilute vancomycin to 50 ug/ml (for VPS-20) or 54 ug/ml (for VPS-D-ala) in BHI broth.
Prepare D-alanine (Sigma) at 800 mM in ddH2O. Filter sterilize with 0.2 um filter.
(§6) The test compounds are from 0.1 mg/ml plates in 10% DMSO, 90% 50 mM HEPES, pH 7.3. Thaw at room temperature.
1. Take 40 ul 50 ug/ml vancomycin in BHI to each well of the assay plate (Final volume will be 100 ul, making vancomycin concentration 20 ug/ml)
2. For each assay plate, prepare a toxicity control plate; instead of pipetting 40 ul of the vancomycin, use 40 ul of BHI broth in each well of the assay plate.
3. Dilute 800 mM D-alanine to 200 mM in BHI broth, take 25 ul of the 200 mM D-alanine to both the assay plate and the toxic control plate.
4. Take 15 ul of 54 ug/ml vancomycin in BHI to each well of the assay plate (Final volume will be 100 ul, making vancomycin concentration 8 ug/ml)
5. For each assay plate, prepare a toxicity control plate; instead of pipetting 15 ul of the vancomycin, use 15 ul of BHI broth in each well of the assay plate.
6. Take 10 ul/well of the test compounds to the assay plates and the toxicity control plates. Do this in perfect register in the microtiter plates (change tips), and work using sterile technique (Final concentration will be 10 ug/ml test compounds, 1% DMSO). This must be done with separate tips, in perfect register.
7. Add 10 ul of 10% DMSO, 90% 50 mM HEPES, pH 7.3 in columns 1 and 12 in each plates.
8. Inoculate all wells in columns 2 to 11 with 50 ul 1/800 diluted log phase culture (prepared as indicated above). Use 50 ul sterile BHI instead of inoculum for the negative growth controls in well A-D in columns 1 and well E-H in columns 12. Add 50 ul of inoculum to Wells E-H in columns 1 and wells A-D in columns 12 for the positive growth controls.
(§7) 11. […] Remove mylar lids and check the cell density (A600) in 21-24 hours using a microtiter plate reader. The plates will need to be agitated carefully to resuspend the cells before reading.

[2] = tested on: Enterococcus faecalis VanA; test: Checkerboard assay / dose range study with vancomycin; format: cell-based; details: for vancomycin MIC reduction in checkerboard assay: compound 0-20 μg/ml, VanA; for synergy with vancomycin: dose range study, VanA phenotype
From the text: (§8) FIG. 9a provides the results of checkerboard assays showing the MIC reduction for vancomycin in the presence of a range of concentrations of brazilin against two Enterococcus faecalis strains, one VanA and the other VanB. […] Similarly, FIG. 9b provides the results of checkerboard assays showing the MIC reduction for vancomycin in the presence of a range of concentrations of 6-ethyl-7-[1-oxo-3-(1-pyrrolidino)]propyl-1,2,3,4-tetrahydro-1,1,4,4-tetramethylnaphthalene (EOPPTTN).
(§9) Two of the three compounds (brazilin and 6-ethyl-7-[oxo-3-(1-pyrrolidino)]propyl-1,2,3,4-tetrahydro-1,1,4,4-tetramethylnaphthalene) have been examined for synergy with vancomycin. […] Two examples of reasons for alterations are for further optimization, and for modification for use with other bacterial strains or species.

[3] = tested on: Enterococcus faecalis VanB; test: as above; format: cell-based; details: for vancomycin MIC reduction in checkerboard assay: compound 0-20 μg/ml, VanB; for synergy with vancomycin: dose range study, VanB phenotype
From the text: as §8, §9

E. faecalis VanA strain [4] = test: Vancomycin potentiation screen VPS-20; format: cell-based; details: Enterococcus faecalis, 10 ug/ml test compound
Procedure: as §1, §2, §3, §4, §5, §6
1. […]
as §7

MRSA Col cells = test: Time-kill curve with methicillin; format: cell-based, Staphylococcus aureus; details: methicillin only; at 24 hours
Procedure: FIG. 3a is a graph of the number of viable MRSA Col cells/ml versus growth time in hours as determined by the method of Example 4. The graph presents the time kill curve for the first potentiating compound from FIG. 1 at 10 μg/ml with methicillin at 20 μg/ml, and curves for controls (drug-free, methicillin only, and potentiator only). Viable cell counts for all controls were greater than 5×10^8 cells/ml at 24 hours, while the viable cell count for methicillin plus potentiator was approximately 5×10^3 cells/ml after 24 hours.
A standard time-kill method (see Eliopolous & Moellering, Ch. 13 in Antibiotics in Laboratory Medicine, 3rd ed., Lorian ed., at pp. 441-444) is used to characterize whether the potentiator-drug combination is bacteriostatic or bactericidal. As controls, normal growth of the pathogen (without drug or potentiator) and the effects of the drug alone and the potentiator alone are assessed using the same inoculum culture as is used in the combination time-kill test. Either bacteriostatic or bactericidal effect should be confirmed for the potentiators to progress to further testing.

MRSA = test: Potentiation screening assay: methicillin MIC reduction in MRSA; format: cell-based, Staphylococcus aureus; details: Staphylococcus aureus; MRSA, methicillin alone
Procedure: After regrowth at 35° C. to an OD600 of 0.2-0.4 (1-2 hrs.), the cells are diluted 1/1000 in MHB. […] The plate is placed in a humidified 35° C. incubator for 5-24 hours, and cell growth or inhibition is read as turbidity (OD600). Two positive and one negative controls for growth are cells grown MHB, cells grown in MHB plus 20 μg/ml methicillin alone (without test compound), and uninoculated MHB respectively.
Compounds which meet the first two criteria for follow-up are evaluated in a standard microdilution assessment of the MIC with methicillin for MRSA. (see Lorian, Antibiotics in Laboratory Medicine, 3rd ed., pp. 72-75 (1991).) In order to be carried further, the MIC of methicillin preferably is reduced in the presence of the potentiator to at most twice the MIC of a susceptible strain for methicillin.
MICs for the compounds were determined in the presence of 0, 5, and 10 μg/ml of each compound. MRSA cells were grown in the presence of 0, 5, and 10 μg/ml test compound and concentrations of methicillin obtained from serial two-fold dilutions starting at 1024 μg/ml to 0.002 μg/ml (This range can be extended or refined as appropriate.) as follows: A fresh inoculum of MRSA cells was grown at 35° C. in Mueller-Hinton Broth (MHB) overnight and then diluted 1/50 in the same medium. After regrowth at 35° C. to an OD600 of 0.2-0.4 (1-2 hrs.), the cells were diluted 1/1000 in MHB. […] The plate was placed in a humidified 35° C. incubator for 24 hours, and cell growth or inhibition was read as turbidity (OD600).

[5] = tested on: Enterococcus faecalis VanA; test: Vancomycin MIC of the test strain; checkerboard with D-alanine; format: cell-based
Procedure: In addition, in the bacterial strain used in the assays below, vancomycin induces the resistance mechanism. […] However, it is likely that the VPS-8 protocol (or one with a similar glycopeptide concentration)will be useful in conjunction with bacterial strains in which the glycopeptide resistance is not induced by a glycopeptide, such as strains in which the resistance is constitutively expressed.
9. […] 25 ul of the 800 mM D-alanine, 15 ul of 134 ug/ml vancomycin, 10 ul of 10% DMSO, 90% 50 mM HEPES, pH 7.3, 50 ul of BHI broth (negative control) or the inoculum (positive control).

[6] = no vancomycin, read-out: percent intrinsic inhibition in the VPS-20 control (without vancomycin)

| MIC (MRSA) [µg/mL] | SMILES | intrinsic activity against the control cells (E. faecalis VanA strain [1]) | vancomycin potentiation screen result (E. faecalis VanA strain [1]) | vancomycin MIC reduction in checkerboard assay [2] | synergy with vancomycin [2] | vancomycin MIC reduction in checkerboard assay [3] | synergy with vancomycin [3] | inhibition at 10 µg/mL (E. faecalis VanA strain [4]; 20 ug/ml vancomycin, read-out: percent growth inhibition in the VPS-20 assay (with vancomycin)) [%] | inhibition at 10 µg/mL (E. faecalis VanA strain [4]; [6]) [%] | viable cell count, methicillin only (control) (MRSA Col cells) | MIC of vancomycin in the presence of D-alanine ([5]; 200 mM D-alanine) [µg/mL] | MIC ([5]; Enterococcus faecalis, read-out: MIC of vancomycin) [µg/mL] |
| --- | --- | --- | --- | --- | --- | --- | --- | --- | --- | --- | --- | --- |
|  | CCc1cc2c(cc1C(=O)CCN1CCCC1)C(C)(C)CCC2(C)C [EOPPTTN, 6-ethyl-7-[1-oxo-3-(1-pyrrolidino)]propyl-1,2,3,4-tetrahydro-1,1,4,4-tetramethylnaphthalene] | some intrinsic activity against the control cells | positive, but less than N-benzyl thiosalicylamide | the vancomycin MIC declined significantly | synergy | the vancomycin MIC declined significantly | synergy |  |  |  |  |  |
|  | O=C(NCc1ccccc1)c1ccccc1S [N-benzyl thiosalicylamide] | little intrinsic activity | very potent inhibitor in the assay |  |  |  |  | 88 | 4 |  |  |  |
| > 100 | COc1cccc(OC)c1C(=O)N[C@@H]1C(=O)N2[C@@H]1SC(C)(C)[C@@H]2C(=O)O [methicillin, reference compound] |  |  |  |  |  |  |  |  | greater than 5×10^8 cells/ml |  |  |
|  | Oc1ccc2c(c1)OC[C@]1(O)Cc3cc(O)c(O)cc3[C@H]21 [brazilin] | some intrinsic activity against the control cells | positive, but less than N-benzyl thiosalicylamide | significant reduction in the vancomycin MIC | synergy | significant reduction in the vancomycin MIC | synergy |  | 32 |  |  |  |
|  | CN[C@H](CC(C)C)C(=O)N[C@H]1C(=O)N[C@@H](CC(N)=O)C(=O)N[C@H]2C(=O)N[C@H]3C(=O)N[C@H](C(=O)N[C@H](C(=O)O)c4cc(O)cc(O)c4-c4cc3ccc4O)[C@H](O)c3ccc(c(Cl)c3)Oc3cc2cc(c3O[C@@H]2O[C@H](CO)[C@@H](O)[C@H](O)[C@H]2O[C@H]2C[C@](C)(N)[C@H](O)[C@H](C)O2)Oc2ccc(cc2Cl)[C@H]1O [vancomycin] |  |  |  |  |  |  |  |  |  | 16 | 512 |
